Test results reported in US20060069132A1, “Azolecarboxamide herbicides” (priority 2004, published 2006).

How the values were obtained:
lambsquarters = test: Test B pre-/postemergence herbicide test; type: in vivo, Chenopodium album
Outline: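 Response was scored visually 13 to 15 days after treatment against untreated greenhouse controls, 0 meaning no effect and 100 complete control. Formulations (solvent mixture plus surfactant) went onto soil after planting, onto foliage of 1- to 4-leaf plants, and onto 2-leaf plants in a flooded paddy set including rice and barnyardgrass.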

morningglory = test: Test B pre-/postemergence herbicide test; type: in vivo, Ipomoea coccinea
Outline: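 Formulation: non-phytotoxic solvent mix with surfactant. Timing: preemergence on seed and postemergence on 2–18 cm plants, applied concurrently. Readout after 13–15 d greenhouse: visual 0–100 control rating against controls.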

cocklebur = test: Test C pre-/postemergence herbicide test; type: in vivo, Xanthium strumarium; conditions: for Plant response rating, Cocklebur: preemergence; for Cocklebur plant response rating: Preemergence, 500 g ai/ha, scale 0 to 100, 0 no effect, 100 complete control
Outline: (§1)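 Seeds were planted and sprayed preemergence with test chemicals in a non-phytotoxic solvent mixture containing surfactant; postemergence treatments went onto plants 2 to 18 cm tall (1- to 4-leaf stage). After 12 to 14 days in a greenhouse, injury was rated visually against untreated controls on a 0–100 scale.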

kochia = test: Test C pre-/postemergence herbicide test; type: in vivo, Kochia scoparia; conditions: for Plant response rating, Kochia: preemergence
Outline: as §1

eastern black nightshade = test: Test C pre-/postemergence herbicide test; type: in vivo, Solanum ptycanthum; conditions: for Plant response rating, Nightshade: preemergence
Outline: as §1

yellow nutsedge = test: Test C pre-/postemergence herbicide test; type: in vivo, Cyperus esculentus; conditions: for Plant response rating, Nutsedge, Yellow: preemergence
Outline: as §1

soybean = test: Test C pre-/postemergence herbicide test; type: in vivo, Glycine max; conditions: for Plant response rating, Soybean: preemergence
Outline: as §1

[1] = 125 g ai/ha; 0 = no effect, 100 = complete control; preemergence
[2] = postemergence, 125 g ai/ha; visual rating, scale 0 (no effect) to 100 (complete control)
[3] = postemergence, 500 g ai/ha; visual rating, scale 0 (no effect) to 100 (complete control)
[4] = 125 g ai/ha, scale 0 (no effect) to 100 (complete control), visual, 12 to 14 days
[5] = Preemergence, 500 g ai/ha, scale 0 to 100, 0 no effect, 100 complete control
[6] = 125 g ai/ha; visual rating, scale 0 (no effect) to 100 (complete control); postemergence
[7] = 500 g ai/ha; visual rating, 0 = no effect, 100 = complete control; preemergence
[8] = postemergence, 500 g ai/ha; scale 0 to 100, 0 is no effect, 100 is complete control
[9] = 500 g ai/ha, scale 0 to 100 (0 no effect, 100 complete control), visual, 12 to 14 days

SMILES: CCc1nn(C(C)(C)C)cc1C(=O)Nc1cccc(C(C)=NO)c1 [Compound 188]
- Lambsquarters plant response rating (0 to 100 scale) (lambsquarters; [1]): 90
- Plant response rating, Lambsquarters (lambsquarters; 500 g ai/ha; visual rating 0-100, 0 no effect, 100 complete control; preemergence): 100
- Lambsquarters plant response rating (lambsquarters; [2]): 60
- Lambsquarters plant response rating (lambsquarters; [3]): 70
- Morningglory plant response rating (0 to 100 scale) (morningglory; [1]): 10
- Morningglory plant response rating (morningglory; [2]): 20
- Morningglory plant response rating (morningglory; [3]): 60
- Plant response rating, Cocklebur (cocklebur; 62 g ai/ha, scale 0 to 100): 0
- Plant response rating, Cocklebur (cocklebur; [4]): 0
- Plant response rating, Cocklebur (cocklebur; 250 g ai/ha, scale 0 to 100 (0 no effect, 100 complete control), visual, 12 to 14 days): 0
- Cocklebur plant response rating (cocklebur): 0
- Plant response rating, Kochia (kochia; 62 g ai/ha, scale 0 to 100): 0
- Plant response rating, Kochia (kochia; [4]): 0
- Kochia plant response rating (kochia; [5]): 95
- Plant response rating, Nightshade (eastern black nightshade; 62 g ai/ha, scale 0 to 100): 80
- Plant response rating, Nightshade (eastern black nightshade; [4]): 95
- Nightshade plant response rating (eastern black nightshade; [5]): 100
- Plant response rating, Nutsedge, Yellow (yellow nutsedge; 62 g ai/ha, scale 0 to 100): 0
- Plant response rating, Nutsedge, Yellow (yellow nutsedge; [4]): 0
- Nutsedge, Yellow plant response rating (yellow nutsedge; [5]): 0
- Plant response rating, Soybean (soybean; 62 g ai/ha, scale 0 to 100): 0
- Plant response rating, Soybean (soybean; [4]): 0
- Soybean plant response rating (soybean; [5]): 0

SMILES: CCn1nc(C2(C)CC2)cc1C(=O)Nc1cccc(C(=O)N2CC=CC2)c1 [Compound 304]
- Lambsquarters plant response rating (0 to 100 scale) (lambsquarters; [1]): 100
- Lambsquarters plant response rating (lambsquarters; [6]): 80
- Plant response rating, Lambsquarters (lambsquarters; [7]): 100
- Lambsquarters plant response rating (lambsquarters; [8]): 90
- Morningglory plant response rating (0 to 100 scale) (morningglory; [1]): 10
- Morningglory plant response rating (morningglory; [6]): 100
- Plant response rating, Morningglory (morningglory; [7]): 10
- Morningglory plant response rating (morningglory; [8]): 100
- Plant response rating, Cocklebur (cocklebur; 62 g ai/ha, scale 0 to 100): 0
- Plant response rating, Cocklebur (cocklebur; [4]): 0
- Plant response rating, Cocklebur (cocklebur; 250 g ai/ha, scale 0-100): 0
- Cocklebur plant response rating (cocklebur): 0
- Plant response rating, Kochia (kochia; [4]): 80
- Plant response rating, Kochia (kochia; 250 g ai/ha, scale 0-100): 85
- Plant response rating, Kochia (kochia; [9]): 100
- Plant response rating, Nightshade (eastern black nightshade; 62 g ai/ha, scale 0 to 100): 80
- Plant response rating, Nightshade (eastern black nightshade; [4]): 100
- Plant response rating, Nightshade (eastern black nightshade; 250 g ai/ha, scale 0-100): 100
- Plant response rating, Nightshade (eastern black nightshade; [9]): 100
- Plant response rating, Nutsedge, Yellow (yellow nutsedge; 62 g ai/ha, scale 0 to 100): 0
- Plant response rating, Nutsedge, Yellow (yellow nutsedge; [4]): 0
- Plant response rating, Nutsedge, Yellow (yellow nutsedge; 250 g ai/ha, scale 0-100): 0
- Plant response rating, Nutsedge, Yellow (yellow nutsedge; [9]): 5
- Plant response rating, Soybean (soybean; 62 g ai/ha, scale 0 to 100): 0
- Plant response rating, Soybean (soybean; 250 g ai/ha, scale 0-100): 20
- Plant response rating, Soybean (soybean; [9]): 20
